Assay results taken from patent publication US10968177B2, “Tricyclic sulfones as RORγ modulators” (BRISTOL-MYERS SQUIBB COMPANY, priority 2016, dated 2021).

Biological target: T1, RORγ (Homo sapiens, UniProt P51449)
T1 construct: Jurkat pEx/Gal/hRORγ CLBD/HYG pG5luc/blast; expressed in transfected cells
T1 sequence (P51449 269-508 limits assumed): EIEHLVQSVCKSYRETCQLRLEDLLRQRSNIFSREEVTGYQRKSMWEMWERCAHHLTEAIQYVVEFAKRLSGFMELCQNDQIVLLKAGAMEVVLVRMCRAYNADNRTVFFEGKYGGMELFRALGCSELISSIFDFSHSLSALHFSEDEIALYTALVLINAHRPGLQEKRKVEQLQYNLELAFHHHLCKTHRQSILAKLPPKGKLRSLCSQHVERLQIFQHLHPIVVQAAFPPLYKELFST
Test: RORγ Gal4 reporter assay (Gal4-luciferase reporter in Jurkat cells)
Format: cell-based
Conditions: inhibition of luminescence (inverse agonist activity); Jurkat cells stably over-expressing hRORγ; incubated overnight
Experimental: General RORγ Gal4 Reporter Assay
Inverse agonist activity of potential ligands to RORγ was measured by inhibition of luminescence in a Gal4-luciferase reporter assay in Jurkat cells.
Jurkat cells stably over-expressing the RORγ receptor, Jurkat pEx/Gal/hRORγ CLBD/HYG pG5luc/blast, were plated at a concentration of 10,000 cells/well in a 384-well solid white cell culture plate (Perkin Elmer #6007899) in assay buffer RPMI 1640 (Gibco 11875-085 1L) containing 0.1% BSA, 100×HEPES (Gibco 15360-080), 100 mM sodium pyruvate (Gibco 11360-040), […] Hygromycin B (Invitrogen 10687-010) and 10 mg/mL blasticidin (Invitrogen R210-01). 100 nL of test compound in a 3-fold serial dilution, with final concentrations ranging from 40 μM to 0.67 nM, were added to the cells which were then incubated overnight.
The following day, cells were lysed with 10 μL of Steady-Glo Luciferase Assay System (Promega Cat. No. EZ550), and analyzed immediately. IC50 values were determined. The IC50 value is defined as the concentration of test compound needed to reduce luciferase activity by 50% and is calculated using the four parameter logistic equation to fit the normalized data.

Point of comparison: `N=S1(=O)CCC(C(=O)N2CCC3(S(=O)(=O)c4ccc(F)cc4)c4ccc(C(F)(C(F)(F)F)C(F)(F)F)cc4OCC23)CC1` (single isomer, unassigned) [Example 4], IC50 0.246 µM. Against it:
- N=S1(=O)CCC(C(=O)N2CC[C@@]3(S(=O)(=O)c4ccc(F)cc4)c4ccc(C(F)(C(F)(F)F)C(F)(F)F)cc4CC[C@@H]23)CC1 (mixture of isomers) [Example 7, ((3aR,9bR)-9b-((4-fluorophenyl)sulfonyl)-7-(perfluoropropan-2-yl)-1,2,3a,4,5,9b-hexahydro-3H-benzo[e]indol-3-yl)(1-imino-1-oxidohexahydro-1λ^6-thiopyran-4-yl)methanone] — 8.8-fold lower, 0.028 µM
- N=S1(=O)CCC(O)(C(=O)N2CC[C@@]3(S(=O)(=O)c4ccc(F)cc4)c4ccc(C(F)(C(F)(F)F)C(F)(F)F)cc4CC[C@@H]23)CC1 (mixture of isomers) [Example 9, ((3aR)-9b-((4-fluorophenyl)sulfonyl)-7-(perfluoropropan-2-yl)-4,5-dihydro-1H-benzo[e]indol-3(2H,3aH,9bH)-yl)(4-hydroxy-1-imino-1-oxidotetrahydro-2H-thiopyran-4-yl)methanone] — 18-fold lower, 0.014 µM
- N=S1(=O)CCC(C(=O)N2CCC3(S(=O)(=O)c4cccc(F)c4)c4ccc(C(F)(C(F)(F)F)C(F)(F)F)cc4CCC23)CC1 (single isomer, unassigned) [Example 1, (9b-((3-fluorophenyl)sulfonyl)-7-(perfluoropropan-2-yl)-1,2,3a,4,5,9b-hexahydro-3H-benzo[e]indol-3-yl)(1-imino-1-oxidohexahydro-1λ^6-thiopyran-4-yl)methanone] — 6.1-fold lower, 0.04 µM
- N=S1(=O)CCC(C(=O)N2CCC3(S(=O)(=O)c4cccc(Cl)c4)c4ccc(C(F)(C(F)(F)F)C(F)(F)F)cc4CCC23)CC1 (single isomer, unassigned) [Example 2] — 4.3-fold lower, 0.057 µM
- N=S1(=O)CCC(C(=O)N2CCC3(S(=O)(=O)c4ccccc4)c4ccc(C(F)(C(F)(F)F)C(F)(F)F)cc4CCC23)CC1 (single isomer, unassigned) [Example 3] — 4.4-fold lower, 0.056 µM
- N=S1(=O)CCC(C(=O)N2CCC3(S(=O)(=O)c4ccc(Cl)cc4)c4ccc(C(F)(C(F)(F)F)C(F)(F)F)cc4CCC23)CC1 (single isomer, unassigned) [Example 5] — 4.2-fold lower, 0.058 µM
- N=S1(=O)CCC(C(=O)N2CCC3(S(=O)(=O)c4ccc(F)cc4)c4ccc(C(F)(C(F)(F)F)C(F)(F)F)cc4NCC23)CC1 (single isomer, unassigned) [Example 6, (9b-((4-fluorophenyl)sulfonyl)-7-(perfluoropropan-2-yl)-1,2,3a,4,5,9b-hexahydro-3H-pyrrolo[2,3-c]quinolin-3-yl)(1-imino-1-oxidohexahydro-1λ^6-thiopyran-4-yl)methanone] — 4.8-fold lower, 0.051 µM
- N=S1(=O)CCC(C(=O)N2CC[C@@]3(S(=O)(=O)c4ccc(F)cc4)c4ccc(C(F)(C(F)(F)F)C(F)(F)F)cc4CC[C@@H]23)CC1 (single isomer, unassigned) [Example 11] — 6.3-fold lower, 0.039 µM
- N=S1(=O)CCC(C(=O)N2CC[C@@]3(S(=O)(=O)c4ccc(F)cc4)c4ccc(C(F)(C(F)(F)F)C(F)(F)F)cc4CC[C@@H]23)CC1 (single isomer, unassigned) [Example 12] — 4.4-fold lower, 0.056 µM
- CN=S1(=O)CCC(C(=O)N2CC[C@@]3(S(=O)(=O)c4ccc(F)cc4)c4ccc(C(F)(C(F)(F)F)C(F)(F)F)cc4CC[C@@H]23)CC1 (single isomer, unassigned) [Example 13] — 9.5-fold lower, 0.026 µM
- CN=S1(=O)CCC(C(=O)N2CC[C@@]3(S(=O)(=O)c4ccc(F)cc4)c4ccc(C(F)(C(F)(F)F)C(F)(F)F)cc4CC[C@@H]23)CC1 (single isomer, unassigned) [Example 14] — 6.1-fold lower, 0.04 µM
- CC(=O)N=S1(=O)CCC(C(=O)N2CC[C@@]3(S(=O)(=O)c4ccc(F)cc4)c4ccc(C(F)(C(F)(F)F)C(F)(F)F)cc4CC[C@@H]23)CC1 (single isomer, unassigned) [Example 15] — 5-fold lower, 0.049 µM
- CC(=O)N=S1(=O)CCC(C(=O)N2CC[C@@]3(S(=O)(=O)c4ccc(F)cc4)c4ccc(C(F)(C(F)(F)F)C(F)(F)F)cc4CC[C@@H]23)CC1 (single isomer, unassigned) [Example 16] — 3.2-fold lower, 0.077 µM
- N=S1(=O)CCC(F)(C(=O)N2CC[C@@]3(S(=O)(=O)c4ccc(F)cc4)c4ccc(C(F)(C(F)(F)F)C(F)(F)F)cc4CC[C@@H]23)CC1 (single isomer, unassigned) [Example 18] — 4.7-fold lower, 0.052 µM
- N=S1(=O)CCC(F)(C(=O)N2CC[C@@]3(S(=O)(=O)c4ccc(F)cc4)c4ccc(C(F)(C(F)(F)F)C(F)(F)F)cc4CC[C@@H]23)CC1 (single isomer, unassigned) [Example 19] — 4.1-fold lower, 0.06 µM
- CC1(C(=O)N2CC[C@@]3(S(=O)(=O)c4ccc(F)cc4)c4ccc(C(F)(C(F)(F)F)C(F)(F)F)cc4CC[C@@H]23)CCS(=N)(=O)CC1 (stereo partly shown) [Example 8] — 7.2-fold lower, 0.034 µM
- N#CC1(C(=O)N2CC[C@@]3(S(=O)(=O)c4ccc(F)cc4)c4ccc(C(F)(C(F)(F)F)C(F)(F)F)cc4CC[C@@H]23)CCS(=N)(=O)CC1 (stereo partly shown) [Example 10] — 5.1-fold lower, 0.048 µM
- CN1CC2N(C(=O)C3CCS(=N)(=O)CC3)CCC2(S(=O)(=O)c2ccc(F)cc2)c2ccc(C(F)(C(F)(F)F)C(F)(F)F)cc21 (stereo not shown) [Example 17] — 12-fold lower, 0.021 µM
